Test results reported in patent publication US20150018403A1, “FLUORENE-AMIDE COMPOUNDS AND PHARMACEUTICAL USE THEREOF” (JAPAN TOBACCO INC., priority 2013, published 2015).

Key:
hERG = target: T1, hERG (Homo sapiens, UniProt Q12809); test: hERG whole cell patch clamp test; format: cell-based; conditions: human, HEK293 cells transfected with hERG, pH 7.4, read-out: hERG inhibition rate (%); for inhibition at 10 μmol/L: concentration 10 μmol/L
T1 construct: host or cells: HEK293
Experimental: (§1) Using human ether-a-go-go related gene (hERG)-transfected HEK293 cells (Cytomyx Limited), an influence on hERG current was examined according to the whole cell patch clamp technique. The hERG-transfected HEK293 cells were passaged using a CO2 incubator (BNA-111, TABAI ESPEC CORP.) under the set conditions of 37° C., 5% CO2, saturated humidity. Culture containers used were Collagen Type I Coated 75 cm^2 flask (4123-010, AGC TECHNO GLASS CO., Ltd.) and Collagen Type I Coated 35 mm culture dish (4000-010, AGC TECHNO GLASS CO., Ltd.). The culture medium used was E-MEM (Eagle Minimum Essential Medium (Earle's Salts, Nikken biomedical laboratory) added with 10% FCS (Fetal bovine serum, BioWest, L.L.C.) and 1% MEM Non-Essential Amino Acids Solution (NEAA, Invitrogen Corporation). Geneticin for the selection of hERG gene expressing cells was added thereto to a concentration of 400 μg/mL. As the cells for the measurement, 3×10^4 hERG-transfected HEK293 cells were plated on a 35 mm culture dish 4 to 7 days before measurement of the hERG current. The culture dish produced for the measurement contained the above-mentioned culture medium without geneticin (Invitrogen Corporation).
(§2) The highest evaluation concentration of each compound was determined from the highest concentration at which precipitation was not found in the standard extracellular fluid (NaCl: 140 mmol/L, KCl: 2.5 mmol/L, MgCl2: 2 mmol/L, CaCl2: 2 mmol/L, HEPES: 10 mmol/L, glucose: 10 mmol/L (adjusted to pH 7.4 with Tris-base)). As the application method, each solution to be applied was ejected from a Y-tube having a tip diameter of about 0.25 mm, which was adjacent (about 2 mm) to the cells, and applied to the cells. The ejection rate was about 0.4 mL/min.
(§3) The experiment was performed at room temperature under a phase contrast microscope. The 35 mm culture dish plated with the cells was set on a measurement apparatus, and the standard extracellular fluid was continuously applied to the cells from the Y-tube. A glass electrode for the measurement was filled with an intracellular fluid (Potassium Gluconate: 130 mmol/L, KCl: 20 mmol/L, MgCl2: 1 mmol/L, ATP-Mg: 5 mmol/L, EGTA: 3.5 mmol/L, HEPES: 10 mmol/L (adjusted to pH 7.2 with Tris-base)). A conventional whole cell patch clamp method was applied to the cells, and the maintenance electric potential was set to −80 mV. Under a fixed electric potential, the whole cell current was amplified by an amplifier for patch clamp (AXOPATCH-200B, Axon Instruments, Inc.), and the data was loaded into a computer (IMC-P642400, Intermedical Co., Ltd.) using a data acquisition analysis software (pCLAMP 9.2, Axon Instruments, Inc.).
(§4) The measurement of the hERG current was performed in the following two steps. In both cases, the hERG current was initiated by giving a command potential (maintenance electric potential −80 mV, prepulse+20 mV, 1.5 sec, test-pulse −50 mV, 1.5 sec).
(§5) Step (1): The above-mentioned command potential was given at 0.1 Hz for 2 min.
(§6) Step (2): The above-mentioned command potential was subjected to P/3 subtraction of pCLAMP 9.2 to remove leak current. This was repeated three times and an average thereof was taken as hERG current.
(§7) Subsequent to step (1), Step (2) was performed (about 3 min), and the maximum tail current obtained by applying a test-pulse to the hERG current obtained by the method of step (2) was taken as hERG current value. Hereafter, the operations of (1) and (2) were alternately repeated until completion of the experiment and the hERG current value was measured.
(§8) Stable hERG current value was recorded three times (about 10 min), and the standard extracellular fluid was instantaneously exchanged with each application fluid. The hERG current value was measured three times (about 10 min) in the same manner during perfusion of the application fluid, and the current value obtained by the 3rd measurement was taken as hERG current value after perfusion of the application fluid. […]

[1] = target: T2, hERG current (hERG-transfected HEK293 cells) (Homo sapiens, UniProt Q12809); test: hERG whole cell patch clamp test; format: cell-based; conditions: whole cell patch clamp, hERG-transfected HEK293 cells
T2 construct: host or cells: HEK293
T2 sequence (Q12809 whole entry): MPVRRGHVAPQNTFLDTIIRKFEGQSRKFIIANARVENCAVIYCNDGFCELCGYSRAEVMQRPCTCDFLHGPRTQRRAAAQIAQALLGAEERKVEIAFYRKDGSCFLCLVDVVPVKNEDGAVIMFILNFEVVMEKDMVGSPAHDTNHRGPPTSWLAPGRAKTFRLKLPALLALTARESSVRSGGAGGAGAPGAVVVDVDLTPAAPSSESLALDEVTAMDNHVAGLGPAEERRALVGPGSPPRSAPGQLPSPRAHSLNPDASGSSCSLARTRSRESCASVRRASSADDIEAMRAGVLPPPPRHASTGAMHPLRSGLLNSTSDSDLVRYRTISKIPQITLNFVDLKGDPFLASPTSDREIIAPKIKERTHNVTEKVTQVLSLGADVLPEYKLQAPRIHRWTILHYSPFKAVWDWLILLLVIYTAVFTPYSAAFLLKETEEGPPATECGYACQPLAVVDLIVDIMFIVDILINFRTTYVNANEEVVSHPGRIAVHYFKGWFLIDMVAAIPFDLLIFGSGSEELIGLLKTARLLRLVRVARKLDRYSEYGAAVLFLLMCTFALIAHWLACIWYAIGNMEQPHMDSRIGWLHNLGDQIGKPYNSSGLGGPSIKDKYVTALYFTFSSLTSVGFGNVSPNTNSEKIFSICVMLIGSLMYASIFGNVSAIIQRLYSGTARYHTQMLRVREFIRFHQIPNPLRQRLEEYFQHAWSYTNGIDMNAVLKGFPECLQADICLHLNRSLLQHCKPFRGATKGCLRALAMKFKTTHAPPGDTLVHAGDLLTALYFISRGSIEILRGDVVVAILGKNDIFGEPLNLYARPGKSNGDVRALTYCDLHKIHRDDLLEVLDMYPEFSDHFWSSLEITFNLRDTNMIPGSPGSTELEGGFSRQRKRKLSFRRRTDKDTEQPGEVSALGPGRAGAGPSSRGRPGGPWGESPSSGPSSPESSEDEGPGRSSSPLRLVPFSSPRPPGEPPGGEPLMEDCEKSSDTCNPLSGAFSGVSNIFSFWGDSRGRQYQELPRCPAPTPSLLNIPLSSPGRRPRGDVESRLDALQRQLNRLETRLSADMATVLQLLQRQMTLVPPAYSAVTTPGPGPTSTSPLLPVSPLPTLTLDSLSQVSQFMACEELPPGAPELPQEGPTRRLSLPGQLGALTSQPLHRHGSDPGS
Experimental: as §1, §2, §3, §4, §5, §6, §7, §8

[2] = Metabolic stability test in human liver microsome; format: in vitro ADME; conditions: 37° C., 5 μM
Experimental: Human liver microsome (manufactured by Xenotech, H0620, final concentration (after dilution), 0.2 mg protein/mL) was suspended in 100 mM potassium phosphate buffer (pH 7.4, containing β-nicotinamide adenine dinucleotide phosphate: 1.3 mM, D-glucose-6-phosphate: 3.3 mM, magnesium chloride: 3.3 mM, glucose-6-phosphate dehydrogenase: 0.45 U/mL), and further mixed with a test compound dissolved in MeCN/DMSO (95/5) (final concentration 5 μM). The mixture was incubated at 37° C. for 10 min and 60 min, acetonitrile containing formic acid (final concentration 0.1%) was added, and the mixture was centrifuged. The test compound (unmodified) in the supernatant was measured by high performance liquid chromatography/mass spectrometry (LC/MS) (manufactured by Waters, LC: Acquity UPLC, MS:SQ Detector or TQ Detector). The residual ratio (%) was calculated from the obtained measurement value.

[3] = Metabolic stability test in rat liver microsome; format: in vitro ADME

T1 sequence (Q12809 whole entry): as above

Row | SMILES | inhibition at 10 μmol/L (hERG) [%] | inhibition at 100 μmol/L (hERG; concentration 100 μmol/L) [%] | IC50 [1] [µM] | stability in liver microsome (residual ratio %) ([2]; 10 min) [%] | stability in liver microsome (residual ratio %) ([2]; 60 min) [%] | stability in liver microsome (residual ratio %) ([3]; 10 min) [%] | stability in liver microsome (residual ratio %) ([3]; 60 min) [%] | inhibition at 1 μmol/L (hERG; concentration 1 μmol/L) [%]
1 | C[C@H](O)COc1cc(-c2cnn(C(C)(C)C(N)=O)c2)c2c(c1)[C@@](O)(C(F)(F)F)c1ccccc1-2 [compound (2), 2-(4-{(9R)-9-hydroxy-2-[(2S)-2-hydroxypropoxy]-9-(trifluoromethyl)-9H-fluoren-4-yl}-1H-pyrazol-1-yl)-2-methylpropanamide] | 7.5 | 62.9 | 58.8 | 98.9 | 97.2 | 98.3 | 98.5 | –
2 | Cn1cc(-c2cc(OCC(C)(C)O)cc3c2-c2ccccc2[C@]3(O)C(F)(F)F)cn1 [compound (B), (9R)-2-(2-Hydroxy-2-methylpropoxy)-4-(1-methyl-1H-pyrazol-4-yl)-9-(trifluoromethyl)-9H-fluoren-9-ol, reference compound] | 72.9 | – | 3.6 | 98.0 | 88.2 | 101.1 | 92.1 | 17.4
